Reference: ChEMBL document CHEMBL1134157, “General synthesis of alpha-substituted 3-bisaryloxy propionic acid derivatives as specific MMP inhibitors” (Bioorg Med Chem Lett, 2001)
pIC50: −log10 of the molar value.

Assays:
[1] = biological target: T1, Interstitial collagenase (Homo sapiens, UniProt P03956); assay: Inhibition of Matrix metalloprotease-1
T1 sequence (P03956 whole entry): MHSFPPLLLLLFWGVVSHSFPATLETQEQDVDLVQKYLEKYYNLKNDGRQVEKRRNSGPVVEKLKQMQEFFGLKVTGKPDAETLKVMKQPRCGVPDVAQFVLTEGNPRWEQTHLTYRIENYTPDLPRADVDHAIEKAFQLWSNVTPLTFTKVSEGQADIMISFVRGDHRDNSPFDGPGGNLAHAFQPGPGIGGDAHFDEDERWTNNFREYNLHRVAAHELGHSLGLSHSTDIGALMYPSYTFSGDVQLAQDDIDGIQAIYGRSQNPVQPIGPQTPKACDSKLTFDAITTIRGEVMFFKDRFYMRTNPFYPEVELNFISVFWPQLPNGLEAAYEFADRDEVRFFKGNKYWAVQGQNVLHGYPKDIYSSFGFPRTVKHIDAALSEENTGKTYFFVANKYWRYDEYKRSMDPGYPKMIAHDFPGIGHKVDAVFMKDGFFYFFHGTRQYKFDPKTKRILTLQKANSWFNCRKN

[2] = biological target: Matrix metalloproteinase-9 (Homo sapiens, UniProt P14780); assay: Inhibition of Matrix metalloprotease-9
Chain of Matrix metalloproteinase-9 (P14780 whole entry): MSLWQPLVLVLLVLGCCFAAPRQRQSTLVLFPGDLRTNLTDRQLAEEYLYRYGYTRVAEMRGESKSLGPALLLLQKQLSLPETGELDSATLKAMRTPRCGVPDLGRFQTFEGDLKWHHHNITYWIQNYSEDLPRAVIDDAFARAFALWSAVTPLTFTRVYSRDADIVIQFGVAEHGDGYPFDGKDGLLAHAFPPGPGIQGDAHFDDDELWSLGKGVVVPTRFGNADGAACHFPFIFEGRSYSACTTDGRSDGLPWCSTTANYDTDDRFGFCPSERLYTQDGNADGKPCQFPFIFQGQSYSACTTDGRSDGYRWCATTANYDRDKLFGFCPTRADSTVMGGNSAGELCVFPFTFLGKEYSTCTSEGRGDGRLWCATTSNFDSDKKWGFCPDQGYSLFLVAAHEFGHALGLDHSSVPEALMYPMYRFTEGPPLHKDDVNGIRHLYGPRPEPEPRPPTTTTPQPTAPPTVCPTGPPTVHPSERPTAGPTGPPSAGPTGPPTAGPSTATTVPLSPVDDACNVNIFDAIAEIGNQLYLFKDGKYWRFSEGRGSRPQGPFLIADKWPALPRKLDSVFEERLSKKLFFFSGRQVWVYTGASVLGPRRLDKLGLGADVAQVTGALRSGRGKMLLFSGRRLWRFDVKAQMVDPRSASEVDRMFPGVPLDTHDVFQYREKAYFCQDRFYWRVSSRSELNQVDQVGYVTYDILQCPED

[3] = biological target: 72 kDa type IV collagenase (Homo sapiens, UniProt P08253); assay: Inhibition of Matrix metalloprotease-2
Chain of 72 kDa type IV collagenase (P08253 whole entry): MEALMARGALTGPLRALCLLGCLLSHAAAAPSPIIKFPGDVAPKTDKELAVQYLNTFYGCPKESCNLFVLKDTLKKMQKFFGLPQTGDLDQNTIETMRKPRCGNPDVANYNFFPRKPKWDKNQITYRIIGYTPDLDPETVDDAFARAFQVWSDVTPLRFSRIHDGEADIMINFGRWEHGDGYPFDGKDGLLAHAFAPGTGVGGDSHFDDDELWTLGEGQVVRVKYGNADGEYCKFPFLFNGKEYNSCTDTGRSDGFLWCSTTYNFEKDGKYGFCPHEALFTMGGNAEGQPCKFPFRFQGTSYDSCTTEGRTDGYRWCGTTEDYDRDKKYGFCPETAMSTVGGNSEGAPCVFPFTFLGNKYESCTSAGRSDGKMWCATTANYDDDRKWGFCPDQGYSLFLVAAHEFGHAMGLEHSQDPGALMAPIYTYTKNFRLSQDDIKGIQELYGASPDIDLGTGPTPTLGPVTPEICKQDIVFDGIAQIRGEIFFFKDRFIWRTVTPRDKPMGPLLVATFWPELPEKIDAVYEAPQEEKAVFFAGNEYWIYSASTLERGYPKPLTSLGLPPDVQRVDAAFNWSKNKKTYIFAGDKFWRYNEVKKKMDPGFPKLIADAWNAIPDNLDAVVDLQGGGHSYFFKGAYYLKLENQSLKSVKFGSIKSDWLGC

[4] = biological target: Collagenase 3 (Homo sapiens, UniProt P45452); assay: Inhibition of Matrix metalloprotease-13
[5] = Metabolic bioavailability was determined; format: ADME, organism-based; settings: in vivo
[6] = tested on: Homo sapiens; assay: […] absorption in Caco-2 cell line monolayers was determined; format: ADME
[7] = biological target: Stromelysin-1 (Homo sapiens, UniProt P08254); assay: Inhibition of Matrix metalloprotease-3
Chain of Stromelysin-1 (P08254 whole entry): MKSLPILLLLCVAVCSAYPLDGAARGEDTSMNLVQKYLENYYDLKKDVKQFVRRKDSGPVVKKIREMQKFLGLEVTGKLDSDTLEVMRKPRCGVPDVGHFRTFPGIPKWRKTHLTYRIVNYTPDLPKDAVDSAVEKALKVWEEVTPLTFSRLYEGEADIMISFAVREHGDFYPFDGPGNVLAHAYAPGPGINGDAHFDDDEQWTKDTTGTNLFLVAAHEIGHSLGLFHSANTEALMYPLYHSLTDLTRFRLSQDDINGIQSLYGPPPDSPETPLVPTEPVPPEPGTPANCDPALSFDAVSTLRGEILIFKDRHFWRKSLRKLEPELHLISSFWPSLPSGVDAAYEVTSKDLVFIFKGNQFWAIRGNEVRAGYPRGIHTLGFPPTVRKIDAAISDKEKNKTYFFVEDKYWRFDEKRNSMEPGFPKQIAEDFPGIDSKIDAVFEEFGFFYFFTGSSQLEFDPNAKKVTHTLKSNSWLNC

[8] = biological target: T1, Interstitial collagenase; assay: Inhibition ofMatrix metalloprotease-1

Row | SMILES | pIC50 [1] | pIC50 [2] | pIC50 [3] | pIC50 [4] | MF [5] [%] | A [6] [%] | pIC50 [7] | pIC50 [8]
1 | N#Cc1ccc(-c2ccc(OCC(CCn3nnc4ccccc4c3=O)C(=O)NO)cc2)cc1 (stereo not drawn) | 6.94 | 9.22 | 9.40 | 9.22 | 42 | 96 | 8.96 | –
2 | CN1C(=O)N(CCC(COc2ccc(-c3ccccc3)cc2)C(=O)NO)C(=O)C1(C)C (stereo not drawn) | – | 6.70 | 7.44 | 7.08 | 17 | – | 7.15 | < 6.00
3 | O=C(NO)C(CCCN1C(=O)c2ccccc2C1=O)COc1ccc(-c2ccccc2)cc1 (stereo not drawn) | < 6.00 | 6.66 | 7.09 | – | – | – | 6.50 | –
4 | O=C(NO)C(CCn1nnc2ccccc2c1=O)COc1ccc(-c2ccc(Cl)cc2)cc1 (stereo not drawn) | 7.13 | 9.22 | 10.00 | 10.80 | 35 | 75 | 8.49 | –
5 | O=C(NO)C(CCN1C(=O)c2ccccc2C1=O)COc1ccc(-c2ccccc2)cc1 (stereo not drawn) | 6.11 | 8.30 | 8.52 | 8.15 | – | – | 7.80 | –
6 | O=C(NO)C(CCn1nnc2ccccc2c1=O)COCCc1ccc(-c2ccc(Cl)cc2)cc1 (stereo not drawn) | – | 8.44 | 7.60 | 7.17 | 23 | – | 8.37 | –
7 | O=C(NO)C(CCn1c(=O)[nH]c2ccccc2c1=O)COc1ccc(-c2ccccc2)cc1 (stereo not drawn) | – | 7.60 | 7.62 | 7.19 | 52 | – | 7.16 | –
8 | O=C(NO)C(CCn1nnc2ccccc2c1=O)COc1ccc(-c2ccccc2)cc1 (stereo not drawn) | 7.51 | 9.00 | 9.30 | 8.52 | 29 | 80 | 8.30 | –
9 | N#Cc1ccc(-c2ccc(OCCC(=O)NO)cc2)cc1 | < 8.00 | 6.18 | 7.31 | 7.19 | – | – | 7.33 | –
10 | O=C(NO)C(CCN1C(=O)c2ccccc2S1(=O)=O)COc1ccc(-c2ccccc2)cc1 (stereo not drawn) | < 4.00 | 7.80 | 8.15 | 7.38 | 30 | – | 7.64 | –
11 | O=C(NO)C(CCn1ncc2ccccc2c1=O)COc1ccc(-c2ccccc2)cc1 (stereo not drawn) | < 5.00 | 7.48 | 8.22 | 7.00 | 13 | – | 7.21 | –
